# Experimental data: patent US20110281807A1, “PLANT DISEASE CONTROL AGENT COMPRISING D-TAGATOSE AS ACTIVE INGREDIENT, AND PLANT DISEASE CONTROL METHOD” (NATIONAL UNIVERSITY CORPORATION KAGAWA UNIVERSITY, priority 2008, published 2011)
# Counter-ions that a name gives are not always drawn. Like-named read-outs stand apart in the source and are kept apart here.
# What was measured:
# [1] = system: Pythium aphanidermatum; test: cucumber damping-off, pot test: soil drench of D-tagatose combined with fungicides; settings: for Preventive value: alone, soil drench
# Protocol: Five seeds of test plants (cucumber, variety: Sagami hanpaku) were sowed in a pot (5×5 cm), which contains infested soil with Pythium aphanidermatum (mycelium 100 g/1 L soil) and was covered with soil. D-Tagatose was diluted to 5000 ppm and the fungicides were diluted to the concentrations listed in table 18, with distilled water. The pot was drenched with 10 ml of the dilution. After 2 weeks, the disease severity of the test plants was observed and the effectiveness of test sample was judged. Tests were carried out in triplicate using 5 plants for each test set and the preventive value was calculated from the germination rate.
# [2] = system: Puccinia recondita; settings: for Preventive value: wheat, compound alone; for pest or weed control at 250 ppm / pest or weed control at 2 ppm / pest or weed control at 50 ppm: Puccinia recondita, in Triticum aestivum, 168 h, read-out: Preventive value
# Protocol: Test plants (variety: Nourin 61 gou) were sowed and grown until two leaves stage.
# D-Tagatose and fungicide were diluted to 10000 ppm and the concentration listed in table 19, respectively, with distilled water, and 10 ml of the dilution was sprayed thoroughly on the plants. Three days after the spraying of the dilution, the plants were inoculated with Puccinia recondita containing 1×10^3/ml and then put for 16 hours in an inoculation chamber (20° C. to 23° C.) to promote disease. Seven days after inoculation the disease severity of the test plants was observed and the effectiveness of test sample was judged.
# [3] = system: Phytophthora infestans; test: whole plant or invertebrate; format: in vivo; settings: for Preventive value: alone; for pest or weed control at 0.4 ppm / pest or weed control at 50 ppm / pest or weed control at 250 ppm / pest or weed control at 10 ppm / pest or weed control at 2 ppm: Phytophthora infestans, in Solanum lycopersicum, 168 h, read-out: Preventive value
# [4] = system: Pseudoperonospora cubensis; settings: for Preventive value: alone; for pest or weed control at 0.4 ppm / pest or weed control at 50 ppm / pest or weed control at 250 ppm / pest or weed control at 10 ppm / pest or weed control at 2 ppm: Pseudoperonospora cubensis, in Cucumis sativus, 168 h, read-out: Preventive value
# Protocol: Test plants (cucumber, variety: Sagami hanpaku) were seeded and grown until the one true leaf stage. D-Tagatose was diluted to 5000 ppm and the fungicides were diluted to the concentrations listed in table 14, with distilled water. And then 10 ml of the dilution was sprayed on the test plant. Three days after spraying of the solution, a sporangium suspension of Pseudoperonospora cubensis containing 1×10^3/ml were inoculated by spraying on test plants and then put for 16 hours in an inoculation chamber (20° C. to 23° C.) to promote disease. Seven days after inoculation the disease severity of the test plants was observed and the effectiveness of the test sample was judged. Tests were carried out using two plants for each test set and the disease severity of the test plants was judged in accordance with the following criteria. The preventive value was calculated from the degree of disease severity.
# 0 (No lesion) 1 (Lesion area was not more than 40%) 2 ((Lesion area was 40%-80%) 3 (Lesion area was not less than 80%)
# Preventive value=100{1−(n/N)} N=disease severity of untreated leaf, n=disease severity of the test leaf Synergistic effect was determined by Colby's equation.
# [5] = system: Plasmopara viticola; settings: for Preventive value: alone; for pest or weed control at 0.4 ppm / pest or weed control at 50 ppm / pest or weed control at 250 ppm / pest or weed control at 10 ppm / pest or weed control at 2 ppm: Plasmopara viticola, 168 h, read-out: Preventive value
# Protocol: Test plants (variety: Neo Muscat) were seeded and grown until three leaves. D-Tagatose was diluted to 5000 ppm and the fungicides were diluted to the concentrations listed in table 16, with distilled water, and 10 ml of the dilution was sprayed on the plants. Three days after the spraying of the dilution, the plants were infected by spraying a sporangium suspension of Plasmopara viticola containing 1×10^3/ml and then put for 16 hours in an inoculation chamber (20° C. to 23° C.) to promote disease. The disease severity of the test plants was observed 7 days after inoculation, and the effectiveness of test sample was judged.
# [6] = system: Botrytis cinerea; settings: for Preventive value: tomato, compound alone; for pest or weed control at 250 ppm / pest or weed control at 10 ppm / pest or weed control at 50 ppm / pest or weed control at 2 ppm: Botrytis cinerea, in Solanum lycopersicum, 168 h, read-out: Preventive value
# Protocol: Test plants (tomato, variety: Ogata-fukujyu) were seeded and grown until the three leaf stage. D-Tagatose and fungicide were diluted to 10000 ppm and the concentrations liste in table 23, respectively, with distilled water and 10 ml of the dilution was sprayed on the plants. Three days after spraying the solution, condia suspension of Botrytis cinerea were inoculated by spraying on test plants and then put for 16 hours in an inoculation chamber (20° C. to 23° C.) to promote disease. Seven days after inoculation, the disease severity of the test plants was observed and the effectiveness of test sample was judged.
# [7] = system: Pyricularia oryze; test: whole plant or invertebrate; format: in vivo; settings: for Preventive value: rice, compound alone
# [8] = system: Sphaerotheca fuliginea; settings: for Preventive value: cucumber, compound alone
# Protocol: Test plants (cucumber, variety: Sagami hanpaku) were seeded and grown until the one true leaf stage. D-Tagatose and fungicide were diluted to 5000 ppm and the concentrations listed in table 20, respectively, with distilled water and 10 ml of the dilution was sprayed thoroughly on the plants. Three days after spraying, a condia suspension containing of Sphaerotheca fuliginea were inoculated by spraying on test plants.
# Seven days after inoculation the disease severity of the test plants was observed and the effectiveness of test sample was judged.
# [9] = system: Pseudoperonospora cubensis; settings: for Preventive value: alone, curative; for pest or weed control at 0.4 ppm / pest or weed control at 50 ppm / pest or weed control at 250 ppm / pest or weed control at 10 ppm / pest or weed control at 2 ppm: Pseudoperonospora cubensis, in Cucumis sativus, 168 h, read-out: Preventive value
# Protocol: Test plants (cucumber, variety: Sagami hanpaku) were seeded and grown until the one true leaf stage. And then, a sporangium suspension of Pseudoperonospora cubensis containing 1×10^3/ml were spraying for inoculation on the back side of the leaves of test plants and then put for 16 hours in an inoculation chamber (20° C. to 23° C.) to promote disease. For a curative test, the inoculated plants as described above were used.
# D-Tagatose was diluted to 5000 ppm and the fungicides were diluted to the concentrations listed in table 15, with distilled water, and 10 ml of the dilution was sprayed. Seven days after inoculation the disease severity of the test plants was observed and the effectiveness of test sample was judged.
# [10] = system: Erysiphe graminis f.sp. hordei; settings: for Preventive value: barley, compound alone
# Protocol: Test plants (barley, variety: Akashinriki) were seeded and grown until the one leaf stage. D-tagatose and fungicide were diluted to 5000 ppm and the concentrations listed in table 21, respectively, with distilled water and 10 ml of the dilution was sprayed thoroughly on the plants. Three days after spraying, a condia suspension of Erysiphe graminis f.sp. hordei was inoculated by spraying on test plants. 7 days after inoculation the disease severity of the test plants was observed and the effectiveness of test sample was judged.
# [11] = Pythium aphanidermatum, in Cucumis sativus, soil, 336 h, read-out: Preventive value
# [12] = Podosphaera fuliginea, in Cucumis sativus, 168 h, read-out: Preventive value
# [13] = Blumeria graminis, in Hordeum vulgare, 168 h, read-out: Preventive value
# [14] = Pyricularia, in Oryza sativa, 168 h, read-out: Preventive value
compound,measurement,setting,value
Cc1c(Br)c2ccc(F)cc2n1S(=O)(=O)c1ncn(S(=O)(=O)N(C)C)n1 [amisulbrom],Preventive value,[1]; 50 ppm,83
CO/C=C(/C(=O)OC)c1ccccc1Oc1cc(Oc2ccccc2C#N)ncn1 [azoxystrobin],Preventive value,[2]; 2 ppm,83
same,Preventive value,[3]; 10 ppm,83
same,Preventive value,[1]; 50 ppm,50
same,Preventive value,[4]; 10 ppm,50
same,Preventive value,[5]; 10 ppm,83
same,Preventive value,[6]; 50 ppm,50
same,Preventive value,[7]; 10 ppm,83
same,Preventive value,[8]; 0.4 ppm,67
same,Preventive value,[9]; 10 ppm,50
same,Preventive value,[10]; 0.4 ppm,50
CC(C)OC(=O)N[C@H](C(=O)N[C@H](C)c1nc2ccc(F)cc2s1)C(C)C [benthiavalicarb-isopropyl],pest or weed control at 250 ppm,[2],0%
same,pest or weed control at 0.4 ppm,[3],73%
same,pest or weed control at 250 ppm,[1]; [11],0%
same,pest or weed control at 0.4 ppm,[4],73%
same,pest or weed control at 0.4 ppm,[5],50%
same,pest or weed control at 250 ppm,[6],0%
same,pest or weed control at 250 ppm,[8]; [12],0%
same,pest or weed control at 0.4 ppm,[9],33%
same,pest or weed control at 250 ppm,[10]; [13],0%
O=C(Nc1ccccc1-c1ccc(Cl)cc1)c1cccnc1Cl [boscalid],pest or weed control at 2 ppm,[2],67%
same,pest or weed control at 10 ppm,[6],67%
same,pest or weed control at 0.4 ppm,[8]; [12],67%
same,pest or weed control at 0.4 ppm,[10]; [13],17%
N#Cc1c(Cl)c(Cl)c(Cl)c(C#N)c1Cl [chlorothalonil],pest or weed control at 50 ppm,[2],83%
same,pest or weed control at 50 ppm,[3],83%
same,pest or weed control at 50 ppm,[4],83%
same,pest or weed control at 50 ppm,[5],73%
same,pest or weed control at 50 ppm,[6],67%
same,pest or weed control at 50 ppm,[8]; [12],50%
same,pest or weed control at 50 ppm,[9],0%
same,pest or weed control at 50 ppm,[10]; [13],33%
[Cu+2].[OH-].[OH-] [cupric hydroxide],Preventive value,[3]; 50 ppm,50
same,Preventive value,[4]; 50 ppm,40
same,Preventive value,[5]; 50 ppm,0
same,Preventive value,[9]; 50 ppm,0
Cc1ccc(-c2c(Cl)nc(C#N)n2S(=O)(=O)N(C)C)cc1 [cyazofamid],pest or weed control at 250 ppm,[2],0%
same,pest or weed control at 0.4 ppm,[3],17%
same,pest or weed control at 50 ppm,[1]; [11],83%
same,pest or weed control at 0.4 ppm,[4],73%
same,pest or weed control at 0.4 ppm,[5],50%
same,pest or weed control at 250 ppm,[6],0%
same,pest or weed control at 250 ppm,[7]; [14],0%
same,pest or weed control at 250 ppm,[8]; [12],0%
same,pest or weed control at 0.4 ppm,[9],0%
same,pest or weed control at 250 ppm,[10]; [13],0%
O=C(Cc1ccccc1)N/C(=N\OCC1CC1)c1c(C(F)(F)F)ccc(F)c1F [cyflufenamid],pest or weed control at 0.4 ppm,[8]; [12],50%
same,pest or weed control at 0.4 ppm,[10]; [13],67%
CCNC(=O)NC(=O)/C(C#N)=N/OC [cymoxanil],pest or weed control at 50 ppm,[3],83%
same,pest or weed control at 250 ppm,[1]; [11],17%
same,pest or weed control at 50 ppm,[4],33%
same,pest or weed control at 50 ppm,[5],73%
same,pest or weed control at 50 ppm,[9],83%
Cc1cc(C2CC2)nc(Nc2ccccc2)n1 [cyprodinil],pest or weed control at 250 ppm,[2],67%
same,pest or weed control at 250 ppm,[3],0%
same,pest or weed control at 250 ppm,[1]; [11],0%
same,pest or weed control at 250 ppm,[4],0%
same,pest or weed control at 250 ppm,[5],0%
same,pest or weed control at 10 ppm,[6],73%
same,pest or weed control at 250 ppm,[7]; [14],73%
same,pest or weed control at 10 ppm,[8]; [12],67%
same,pest or weed control at 250 ppm,[9],0%
same,pest or weed control at 10 ppm,[10]; [13],17%
COc1ccc(C(=CC(=O)N2CCOCC2)c2ccc(Cl)cc2)cc1OC [dimethomorph],pest or weed control at 10 ppm,[3],73%
same,pest or weed control at 250 ppm,[1]; [11],0%
same,pest or weed control at 10 ppm,[4],67%
same,pest or weed control at 10 ppm,[5],50%
same,pest or weed control at 10 ppm,[9],40%
CSC1=N[C@@](C)(c2ccccc2)C(=O)N1Nc1ccccc1 [fenamidone],pest or weed control at 2 ppm,[3],83%
same,pest or weed control at 10 ppm,[1]; [11],50%
same,pest or weed control at 2 ppm,[4],33%
same,pest or weed control at 2 ppm,[5],83%
same,pest or weed control at 2 ppm,[9],33%
O=[N+]([O-])c1cc(C(F)(F)F)c(Cl)c([N+](=O)[O-])c1Nc1ncc(C(F)(F)F)cc1Cl [fluazinam],pest or weed control at 50 ppm,[2],83%
same,pest or weed control at 10 ppm,[3],83%
same,pest or weed control at 10 ppm,[4],97%
same,pest or weed control at 10 ppm,[5],83%
same,pest or weed control at 50 ppm,[6],67%
same,pest or weed control at 10 ppm,[7]; [14],50%
same,pest or weed control at 250 ppm,[8]; [12],83%
same,pest or weed control at 10 ppm,[9],0%
same,pest or weed control at 250 ppm,[10]; [13],83%
N#Cc1c[nH]cc1-c1cccc2c1OC(F)(F)O2 [fludioxonil],pest or weed control at 50 ppm,[2],17%
same,pest or weed control at 10 ppm,[3],0%
same,pest or weed control at 250 ppm,[1]; [11],0%
same,pest or weed control at 10 ppm,[4],57%
same,pest or weed control at 10 ppm,[5],33%
same,pest or weed control at 2 ppm,[6],67%
same,pest or weed control at 50 ppm,[7]; [14],83%
same,pest or weed control at 250 ppm,[8]; [12],73%
same,pest or weed control at 10 ppm,[9],0%
same,pest or weed control at 250 ppm,[10]; [13],73%
O=C(NCc1ncc(C(F)(F)F)cc1Cl)c1c(Cl)cccc1Cl [fluopicolide],Preventive value,[3]; 10 ppm,83
same,Preventive value,[1]; 250 ppm,83
same,Preventive value,[4]; 10 ppm,83
same,Preventive value,[5]; 10 ppm,73
same,Preventive value,[7]; 250 ppm,0
same,Preventive value,[9]; 10 ppm,83
CCO[PH](=O)O [fosethyl],Preventive value,[2]; 250 ppm,0
same,Preventive value,[3]; 250 ppm,33
same,Preventive value,[1]; 250 ppm,0
same,Preventive value,[4]; 250 ppm,0
same,Preventive value,[5]; 250 ppm,0
same,Preventive value,[8]; 250 ppm,17
same,Preventive value,[9]; 250 ppm,0
same,Preventive value,[10]; 250 ppm,17
O=C1OCc2c(Cl)c(Cl)c(Cl)c(Cl)c21 [fthalide],pest or weed control at 10 ppm,[7]; [14],50%
Cc1cc(O)no1 [hymexazol],pest or weed control at 250 ppm,[2],0%
same,pest or weed control at 250 ppm,[3],0%
same,pest or weed control at 50 ppm,[1]; [11],67%
same,pest or weed control at 250 ppm,[4],0%
same,pest or weed control at 250 ppm,[5],0%
same,pest or weed control at 250 ppm,[6],0%
same,pest or weed control at 250 ppm,[7]; [14],33%
same,pest or weed control at 250 ppm,[8]; [12],0%
same,pest or weed control at 250 ppm,[9],0%
same,pest or weed control at 250 ppm,[10]; [13],0%
CCCCCCCCCCCCc1ccc(S(=O)(=O)O)cc1.CCCCCCCCCCCCc1ccc(S(=O)(=O)O)cc1.CCCCCCCCCCCCc1ccc(S(=O)(=O)O)cc1.NC(N)=NCCCCCCCCNCCCCCCCCN=C(N)N [iminoctadine albesilate],Preventive value,[2]; 250 ppm,40
same,Preventive value,[3]; 250 ppm,0
same,Preventive value,[4]; 250 ppm,40
same,Preventive value,[5]; 250 ppm,0
same,Preventive value,[6]; 10 ppm,67
same,Preventive value,[7]; 250 ppm,50
same,Preventive value,[8]; 50 ppm,83
same,Preventive value,[9]; 250 ppm,0
same,Preventive value,[10]; 50 ppm,17
CC(C)NC(=O)N1CC(=O)N(c2cc(Cl)cc(Cl)c2)C1=O [iprodione],pest or weed control at 250 ppm,[2],33%
same,pest or weed control at 2 ppm,[6],40%
same,pest or weed control at 250 ppm,[7]; [14],0%
same,pest or weed control at 250 ppm,[8]; [12],33%
same,pest or weed control at 250 ppm,[10]; [13],17%
C[C@H]1O[C@H](O[C@H]2[C@H](O)[C@@H](O)[C@@H](O)[C@H](O)[C@@H]2O)[C@@H](N)C[C@@H]1NC(=N)C(=O)O [kasugamycin],Preventive value,[7]; 10 ppm,73
C#CCOc1ccc(CCNC(=O)C(OCC#C)c2ccc(Cl)cc2)cc1OC (stereo not drawn) [mandipropamid],Preventive value,[3]; 0.4 ppm,73
same,Preventive value,[4]; 0.4 ppm,67
same,Preventive value,[5]; 0.4 ppm,73
same,Preventive value,[9]; 0.4 ppm,40
CCCOC(=O)NCCCN(C)C [propamocarb hydrochloride],pest or weed control at 250 ppm,[3],67%
same,pest or weed control at 250 ppm,[1]; [11],0%
same,pest or weed control at 250 ppm,[4],67%
same,pest or weed control at 250 ppm,[5],33%
same,pest or weed control at 250 ppm,[9],40%
Fc1ccc(Oc2ccnc3cc(Cl)cc(Cl)c23)cc1 [quinoxyfen],pest or weed control at 250 ppm,[2],0%
same,pest or weed control at 250 ppm,[6],0%
same,pest or weed control at 2 ppm,[8]; [12],83%
same,pest or weed control at 2 ppm,[10]; [13],93%
Cc1cccc2sc3nncn3c12 [tricyclazole],pest or weed control at 10 ppm,[7]; [14],50%
CCCOC/C(=N\c1ccc(Cl)cc1C(F)(F)F)n1ccnc1 [triflumizole],pest or weed control at 2 ppm,[2],40%
same,pest or weed control at 50 ppm,[6],67%
same,pest or weed control at 0.4 ppm,[8]; [12],97%
same,pest or weed control at 0.4 ppm,[10]; [13],50%
OCC1=C[C@H](N[C@H]2C[C@H](CO)[C@@H](O[C@@H]3O[C@H](CO)[C@@H](O)[C@H](O)[C@H]3O)[C@H](O)[C@H]2O)[C@H](O)[C@@H](O)[C@@H]1O [validamycin],pest or weed control at 10 ppm,[7]; [14],50%
CCC(C)(NC(=O)c1cc(Cl)c(C)c(Cl)c1)C(=O)CCl (stereo not drawn) [zoxamide],pest or weed control at 2 ppm,[3],50%
same,pest or weed control at 250 ppm,[1]; [11],0%
same,pest or weed control at 2 ppm,[4],67%
same,pest or weed control at 2 ppm,[5],83%
same,pest or weed control at 250 ppm,[7]; [14],0%
same,pest or weed control at 2 ppm,[9],33%
manzeb,Preventive value,[2]; 50 ppm,83
same,Preventive value,[3]; 10 ppm,67
same,Preventive value,[4]; 10 ppm,90
same,Preventive value,[5]; 10 ppm,33
same,Preventive value,[6]; 50 ppm,40
same,Preventive value,[8]; 50 ppm,50
same,Preventive value,[9]; 10 ppm,0
same,Preventive value,[10]; 50 ppm,40
